Results published in BindingDB's records for doi:10.1016/j.ejmech.2019.02.016 (National Health Research Institutes, 2019).

Experiment: Inhibition of NS5A in HCV genotype 1b infected in human HuH7 replicon cells assessed as reduction in subgenomic viral RNA replication treated for 2 days followed by compound washout and subsequent compound dosing measured after 1 day by SEAP reporter gene assay

| Structure (SMILES) | EC50 |
| --- | --- |
| O=C(CCN1CCCCC1)N[C@H](C(=O)N1CCC[C@H]1c1ncc(-c2ccc(-c3ccc(-c4cnc([C@@H]5CCCN5C(=O)[C@H](NC(=O)CCN5CCCCC5)c5ccccc5)s4)cc3)cc2)s1)c1ccccc1 | 16 nM |
| O=C(CCN1CCCC1)N[C@H](C(=O)N1CCC[C@H]1c1ncc(-c2ccc(-c3ccc(-c4cnc([C@@H]5CCCN5C(=O)[C@H](NC(=O)CCN5CCCC5)c5ccccc5)s4)cc3)cc2)s1)c1ccccc1 | 23 nM |
| O=C(CCn1cccc1)N[C@H](C(=O)N1CCC[C@H]1c1ncc(-c2ccc(-c3ccc(-c4cnc([C@@H]5CCCN5C(=O)[C@H](NC(=O)CCn5cccc5)c5ccccc5)s4)cc3)cc2)s1)c1ccccc1 | 0.23 nM |
| O=C(N[C@H](C(=O)N1CCC[C@H]1c1ncc(-c2ccc(-c3ccc(-c4cnc([C@@H]5CCCN5C(=O)[C@H](NC(=O)N5CCCCC5)c5ccccc5)s4)cc3)cc2)s1)c1ccccc1)N1CCCCC1 | 1.9 nM |
| O=C(N[C@H](C(=O)N1CCC[C@H]1c1ncc(-c2ccc(-c3ccc(-c4cnc([C@@H]5CCCN5C(=O)[C@H](NC(=O)N5CCCC5)c5ccccc5)s4)cc3)cc2)s1)c1ccccc1)N1CCCC1 | 1.3 nM |
| O=C(N[C@H](C(=O)N1CCC[C@H]1c1ncc(-c2ccc(-c3ccc(-c4cnc([C@@H]5CCCN5C(=O)[C@H](NC(=O)c5cccs5)c5ccccc5)s4)cc3)cc2)s1)c1ccccc1)c1cccs1 | 110 nM |
| O=C(N[C@H](C(=O)N1CCC[C@H]1c1ncc(-c2ccc(-c3ccc(-c4cnc([C@@H]5CCCN5C(=O)[C@H](NC(=O)c5ccoc5)c5ccccc5)s4)cc3)cc2)s1)c1ccccc1)c1ccoc1 | 0.63 nM |
| O=C(N[C@H](C(=O)N1CCC[C@H]1c1ncc(-c2ccc(-c3ccc(-c4cnc([C@@H]5CCCN5C(=O)[C@H](NC(=O)c5ccco5)c5ccccc5)s4)cc3)cc2)s1)c1ccccc1)c1ccco1 | 1.7 nM |
| O=C(N[C@H](C(=O)N1CCC[C@H]1c1ncc(-c2ccc(-c3ccc(-c4cnc([C@@H]5CCCN5C(=O)[C@H](NC(=O)c5cccnc5)c5ccccc5)s4)cc3)cc2)s1)c1ccccc1)c1cccnc1 | 2.1 nM |
| O=C(N[C@H](C(=O)N1CCC[C@H]1c1ncc(-c2ccc(-c3ccc(-c4cnc([C@@H]5CCCN5C(=O)[C@H](NC(=O)c5ccccc5)c5ccccc5)s4)cc3)cc2)s1)c1ccccc1)c1ccccc1 | 272 nM |
| O=C(N[C@H](C(=O)N1CCC[C@H]1c1ncc(-c2ccc(-c3ccc(-c4cnc([C@@H]5CCCN5C(=O)[C@H](NC(=O)C5CCC5)c5ccccc5)s4)cc3)cc2)s1)c1ccccc1)C1CCC1 | 0.45 nM |
| O=C(N[C@H](C(=O)N1CCC[C@H]1c1ncc(-c2ccc(-c3ccc(-c4cnc([C@@H]5CCCN5C(=O)[C@H](NC(=O)C5CC5)c5ccccc5)s4)cc3)cc2)s1)c1ccccc1)C1CC1 | 1.5 nM |
| CC(C)(C)C(=O)N[C@H](C(=O)N1CCC[C@H]1c1ncc(-c2ccc(-c3ccc(-c4cnc([C@@H]5CCCN5C(=O)[C@H](NC(=O)C(C)(C)C)c5ccccc5)s4)cc3)cc2)s1)c1ccccc1 | 52 nM |
| CCCCC(=O)N[C@H](C(=O)N1CCC[C@H]1c1ncc(-c2ccc(-c3ccc(-c4cnc([C@@H]5CCCN5C(=O)[C@H](NC(=O)CCCC)c5ccccc5)s4)cc3)cc2)s1)c1ccccc1 | 7.6 nM |
| CCCC(=O)N[C@H](C(=O)N1CCC[C@H]1c1ncc(-c2ccc(-c3ccc(-c4cnc([C@@H]5CCCN5C(=O)[C@H](NC(=O)CCC)c5ccccc5)s4)cc3)cc2)s1)c1ccccc1 | 0.77 nM |
| CCC(=O)N[C@H](C(=O)N1CCC[C@H]1c1ncc(-c2ccc(-c3ccc(-c4cnc([C@@H]5CCCN5C(=O)[C@H](NC(=O)CC)c5ccccc5)s4)cc3)cc2)s1)c1ccccc1 | 0.85 nM |
| CCN(CC)CCC(=O)N[C@@H](C(=O)N1CCC[C@H]1c1ncc(-c2ccc(-c3ccc(-c4cnc([C@@H]5CCCN5C(=O)[C@H](NC(=O)CCN(CC)CC)c5ccccc5)s4)cc3)cc2)s1)c1ccccc1 | 1 nM |
| CN(C)CCC(=O)N[C@@H](C(=O)N1CCC[C@H]1c1ncc(-c2ccc(-c3ccc(-c4cnc([C@@H]5CCCN5C(=O)[C@H](NC(=O)CCN(C)C)c5ccccc5)s4)cc3)cc2)s1)c1ccccc1 | 2.5 nM |
| O=C(N[C@@H](C(=O)N1CCC[C@H]1c1ncc(-c2ccc(-c3ccc(-c4cnc([C@@H]5CCCN5C(=O)[C@H](NC(=O)N5CCCCC5)c5ccccc5)s4)cc3)cc2)s1)c1ccccc1)N1CCCCC1 | 0.016 nM |
| O=C(N[C@@H](C(=O)N1CCC[C@H]1c1ncc(-c2ccc(-c3ccc(-c4cnc([C@@H]5CCCN5C(=O)[C@H](NC(=O)N5CCCC5)c5ccccc5)s4)cc3)cc2)s1)c1ccccc1)N1CCCC1 | 0.035 nM |
| O=C(N[C@@H](C(=O)N1CCC[C@H]1c1ncc(-c2ccc(-c3ccc(-c4cnc([C@@H]5CCCN5C(=O)[C@H](NC(=O)c5ccsc5)c5ccccc5)s4)cc3)cc2)s1)c1ccccc1)c1ccsc1 | 0.53 nM |
| O=C(N[C@@H](C(=O)N1CCC[C@H]1c1ncc(-c2ccc(-c3ccc(-c4cnc([C@@H]5CCCN5C(=O)[C@H](NC(=O)c5ccco5)c5ccccc5)s4)cc3)cc2)s1)c1ccccc1)c1ccco1 | 0.07 nM |
| O=C(N[C@@H](C(=O)N1CCC[C@H]1c1ncc(-c2ccc(-c3ccc(-c4cnc([C@@H]5CCCN5C(=O)[C@H](NC(=O)c5ccccn5)c5ccccc5)s4)cc3)cc2)s1)c1ccccc1)c1ccccn1 | 46 nM |

| Structure (SMILES) | EC50 |
| --- | --- |
| O=C(N[C@@H](C(=O)N1CCC[C@H]1c1ncc(-c2ccc(-c3ccc(-c4cnc([C@@H]5CCCN5C(=O)[C@H](NC(=O)c5ccccc5)c5ccccc5)s4)cc3)cc2)s1)c1ccccc1)c1ccccc1 | 21 nM |
| O=C(N[C@@H](C(=O)N1CCC[C@H]1c1ncc(-c2ccc(-c3ccc(-c4cnc([C@@H]5CCCN5C(=O)[C@H](NC(=O)C5CCCCC5)c5ccccc5)s4)cc3)cc2)s1)c1ccccc1)C1CCCCC1 | 0.25 nM |
| O=C(N[C@@H](C(=O)N1CCC[C@H]1c1ncc(-c2ccc(-c3ccc(-c4cnc([C@@H]5CCCN5C(=O)[C@H](NC(=O)C5CCCC5)c5ccccc5)s4)cc3)cc2)s1)c1ccccc1)C1CCCC1 | 0.006 nM |
| CC(C)(C)C(=O)N[C@@H](C(=O)N1CCC[C@H]1c1ncc(-c2ccc(-c3ccc(-c4cnc([C@@H]5CCCN5C(=O)[C@H](NC(=O)C(C)(C)C)c5ccccc5)s4)cc3)cc2)s1)c1ccccc1 | 1.4 nM |
| CCCCCC(=O)N[C@@H](C(=O)N1CCC[C@H]1c1ncc(-c2ccc(-c3ccc(-c4cnc([C@@H]5CCCN5C(=O)[C@H](NC(=O)CCCCC)c5ccccc5)s4)cc3)cc2)s1)c1ccccc1 | 0.063 nM |
| CCCCC(=O)N[C@@H](C(=O)N1CCC[C@H]1c1ncc(-c2ccc(-c3ccc(-c4cnc([C@@H]5CCCN5C(=O)[C@H](NC(=O)CCCC)c5ccccc5)s4)cc3)cc2)s1)c1ccccc1 | 0.031 nM |
| CCC(=O)N[C@@H](C(=O)N1CCC[C@H]1c1ncc(-c2ccc(-c3ccc(-c4cnc([C@@H]5CCCN5C(=O)[C@H](NC(=O)CC)c5ccccc5)s4)cc3)cc2)s1)c1ccccc1 | 0.016 nM |
| CC(=O)N[C@@H](C(=O)N1CCC[C@H]1c1ncc(-c2ccc(-c3ccc(-c4cnc([C@@H]5CCCN5C(=O)[C@H](NC(C)=O)c5ccccc5)s4)cc3)cc2)s1)c1ccccc1 | 0.02 nM |
| COC(=O)N[C@H](C(=O)N1CCC[C@H]1c1ncc(-c2ccc(-c3ccc(-c4cnc([C@@H]5CCCN5C(=O)[C@@H](NC(=O)OC)C(C)C)s4)cc3)cc2)s1)C(C)C | 56 nM |
| CC[C@H](NC(=O)OC)C(=O)N1CCC[C@H]1c1ncc(-c2ccc(-c3ccc(-c4cnc([C@@H]5CCCN5C(=O)[C@H](CC)NC(=O)OC)s4)cc3)cc2)s1 | 57 nM |
| COC(=O)N[C@H](C(=O)N1CCC[C@H]1c1ncc(-c2ccc(-c3ccc(-c4cnc([C@@H]5CCCN5C(=O)[C@@H](NC(=O)OC)C(C)(C)C)s4)cc3)cc2)s1)C(C)(C)C | 471 nM |
| CCCC[C@@H](NC(=O)C1CC1)C(=O)N1CCC[C@H]1c1ncc(-c2ccc(-c3ccc(-c4cnc([C@@H]5CCCN5C(=O)[C@@H](CCCC)NC(=O)C5CC5)s4)cc3)cc2)s1 | 358 nM |
| CN1CCN(CCC(=O)N[C@H](C(=O)N2CCC[C@H]2c2ncc(-c3ccc(-c4ccc(-c5cnc([C@@H]6CCCN6C(=O)[C@H](NC(=O)CCN6CCN(C)CC6)c6ccccc6)s5)cc4)cc3)s2)c2ccccc2)CC1 | 102 nM |
| CN(C)CCC(=O)N[C@H](C(=O)N1CCC[C@H]1c1ncc(-c2ccc(-c3ccc(-c4cnc([C@@H]5CCCN5C(=O)[C@H](NC(=O)CCN(C)C)c5ccccc5)s4)cc3)cc2)s1)c1ccccc1 | 6.9 nM |
| O=C(N[C@H](C(=O)N1CCC[C@H]1c1ncc(-c2ccc(-c3ccc(-c4cnc([C@@H]5CCCN5C(=O)[C@H](NC(=O)c5ccsc5)c5ccccc5)s4)cc3)cc2)s1)c1ccccc1)c1ccsc1 | 122 nM |
| O=C(N[C@H](C(=O)N1CCC[C@H]1c1ncc(-c2ccc(-c3ccc(-c4cnc([C@@H]5CCCN5C(=O)[C@H](NC(=O)c5ccccn5)c5ccccc5)s4)cc3)cc2)s1)c1ccccc1)c1ccccn1 | 2640 nM |
| O=C(N[C@H](C(=O)N1CCC[C@H]1c1ncc(-c2ccc(-c3ccc(-c4cnc([C@@H]5CCCN5C(=O)[C@H](NC(=O)C5CCCC5)c5ccccc5)s4)cc3)cc2)s1)c1ccccc1)C1CCCC1 | 1.1 nM |
| CCCCCC(=O)N[C@H](C(=O)N1CCC[C@H]1c1ncc(-c2ccc(-c3ccc(-c4cnc([C@@H]5CCCN5C(=O)[C@H](NC(=O)CCCCC)c5ccccc5)s4)cc3)cc2)s1)c1ccccc1 | 2.4 nM |
| O=C(CCN1CCOCC1)N[C@@H](C(=O)N1CCC[C@H]1c1ncc(-c2ccc(-c3ccc(-c4cnc([C@@H]5CCCN5C(=O)[C@H](NC(=O)CCN5CCOCC5)c5ccccc5)s4)cc3)cc2)s1)c1ccccc1 | 0.2 nM |
| O=C(CCn1cccc1)N[C@@H](C(=O)N1CCC[C@H]1c1ncc(-c2ccc(-c3ccc(-c4cnc([C@@H]5CCCN5C(=O)[C@H](NC(=O)CCn5cccc5)c5ccccc5)s4)cc3)cc2)s1)c1ccccc1 | 0.017 nM |
| O=C(N[C@@H](C(=O)N1CCC[C@H]1c1ncc(-c2ccc(-c3ccc(-c4cnc([C@@H]5CCCN5C(=O)[C@H](NC(=O)c5ccoc5)c5ccccc5)s4)cc3)cc2)s1)c1ccccc1)c1ccoc1 | 0.08 nM |
| O=C(Cc1ccccc1)N[C@@H](C(=O)N1CCC[C@H]1c1ncc(-c2ccc(-c3ccc(-c4cnc([C@@H]5CCCN5C(=O)[C@H](NC(=O)Cc5ccccc5)c5ccccc5)s4)cc3)cc2)s1)c1ccccc1 | 0.13 nM |
| O=C(N[C@@H](C(=O)N1CCC[C@H]1c1ncc(-c2ccc(-c3ccc(-c4cnc([C@@H]5CCCN5C(=O)[C@H](NC(=O)C5CC5)c5ccccc5)s4)cc3)cc2)s1)c1ccccc1)C1CC1 | 0.003 nM |
